# Assay results as given in patent publication US20240307415A1, “STEROID COMPOUND, AND PHARMACEUTICAL COMPOSITION THEREOF AND USE THEREOF” (JIANGSU SIMCERE PHARMACEUTICAL CO., LTD., priority 2021, published 2024).
# Experiments:
# [1] = molecular target: Glucocorticoid Receptor GR (Homo sapiens (Human), UniProt P04150); experiment: Binding activity to glucocorticoid receptor GR (Polarscreen fluorescence polarization kit); conditions: GR full length, 2 h
# Procedure: The binding activity of the compound to GR was determined using the Polarscreen Glucocorticoid Receptor Assay Kit, Red (brand: Thermo, Cat. No: A15898). […] The highest concentration was 100 μM, 8 concentrations in total. […] With the log value of the final concentration of the compound as the X axis and the mP value as the Y axis, data was input into the processing software Graphpad Prism 9, and the EC50 value was calculated by four-parameter fitting
# CYP2C9 = CYP2C9 (Homo sapiens (Human), UniProt P11712); experiment: Inhibition of CYP2C9 enzymatic activity in human liver microsomes; assay type: in vitro ADME; conditions: human liver microsome, substrate diclofenac, 5 min
# Procedure: (§1) The inhibition of CYP2C9 and CYP2D6 activity by the compound of the present invention was determined using the following method.
# (§2) • 1. Human liver microsome (Corning 452117) • 2. NADPH (Solarbio 705Y021) • 3. Positive substrates diclofenac (Sigma SLBV3438) and dextromethorphan (TRC 3-EDO-175-1) • 4. Positive inhibitors sulfaphenazole (D. Ehrenstorfer GmbH 109012) and quinidine (TCI WEODL-RE) • 5. AB Sciex Triple Quad 5500 liquid chromatography-mass spectrometry system
# (§3) • 1. Preparation of 100 mM phosphate-buffered saline (PBS): 7.098 g Na2HPO4 was weighed. 500 mL pure water was added. The mixture was dissolved by sonication to give solution A. 3.400 g KH2PO4 was weighed. 250 mL pure water was added. The mixture was dissolved by sonication to give solution B. The solution A was placed in a stirrer, and the solution B was slowly added until the pH reached 7.4, so that the 100 mM PBS buffer was prepared. • 2. A 10 mM NADPH solution was prepared with a 100 mM PBS buffer. A 10 mM stock solution of the compound of the present invention was diluted with DMSO to give a compound working solution at a concentration of 200×(6000, 2000, 600, 200, 60, 20, and 0 μM). […]
# (§4) The reduction of metabolite production in the treatment groups versus the control group was compared by the peak area ratios of the sample to the internal standard, and the IC50 value was calculated using Excel XLfit 5.3.1.3.
# [2] = Metabolic stability in human liver microsomes; assay type: in vitro ADME; conditions: pH 7.4, 1 μM compound, 0.5 mg/mL microsome, NADPH 1 mM, 37° C., read-out: Human liver microsome stability t1/2
# From the text: • 1. Human liver microsome (Corning 452117), beagle dog liver microsome (XENOTECH D1000), SD rat liver microsome (XENOTECH R1000), and CD-1 mouse liver microsome (XENOTECH M1000) • 2. Na2HPO4 (Tianjin Guangfu Fine Chemical Research Institute 20180130) • 3. KH2PO4 (Tianjin Guangfu Fine Chemical Research Institute 20180920) • 4. MgCl2 (Tianjin Guangfu Fine Chemical Research Institute 20191216) • 5. NADPH (Solarbio 1216C022) • 6. Positive control compound verapamil (Sigma MKBV4993V) • 7. AB Sciex API4000 liquid chromatography-mass spectrometry system
# • 1. Preparation of 100 mM phosphate-buffered saline (PBS): 7.098 g Na2HPO4 was weighed. 500 mL pure water was added. The mixture was dissolved by sonication to give solution A. 3.400 g KH2PO4 was weighed. 250 mL pure water was added. […]
# All data were calculated by Microsoft Excel software. The peak area was detected through an extracted ion chromatogram. The in vitro half-life (t1/2) of the compound was determined by linear fitting of the natural logarithm of compound elimination percentage over time.
# In vitro half-life (t1/2) was calculated by the slope k: […]
# The in vitro intrinsic clearance (in μL/min/mg protein) was calculated using the following formula: […]
# CYP2D6 = CYP2D6 (Homo sapiens (Human), UniProt P10635); experiment: Inhibition of CYP2D6 enzymatic activity in human liver microsomes; assay type: in vitro ADME; conditions: human liver microsome, substrate dextromethorphan, 20 min
# Procedure: as §1, §2, §3, §4
# Sequence of CYP2C9 (P11712 whole entry): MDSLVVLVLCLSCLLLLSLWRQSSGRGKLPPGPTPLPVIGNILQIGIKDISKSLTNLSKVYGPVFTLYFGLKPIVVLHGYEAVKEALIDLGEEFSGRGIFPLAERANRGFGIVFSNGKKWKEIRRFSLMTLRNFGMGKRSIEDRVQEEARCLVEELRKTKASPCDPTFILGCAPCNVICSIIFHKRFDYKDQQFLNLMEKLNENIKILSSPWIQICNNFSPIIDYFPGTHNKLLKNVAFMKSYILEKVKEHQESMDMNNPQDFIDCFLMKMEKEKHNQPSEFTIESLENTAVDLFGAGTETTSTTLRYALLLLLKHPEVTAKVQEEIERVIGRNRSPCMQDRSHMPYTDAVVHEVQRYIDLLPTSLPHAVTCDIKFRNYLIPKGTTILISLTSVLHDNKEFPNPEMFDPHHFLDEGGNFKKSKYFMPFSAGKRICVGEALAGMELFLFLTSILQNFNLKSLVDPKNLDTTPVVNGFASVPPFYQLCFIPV
# Sequence of CYP2D6 (P10635 whole entry): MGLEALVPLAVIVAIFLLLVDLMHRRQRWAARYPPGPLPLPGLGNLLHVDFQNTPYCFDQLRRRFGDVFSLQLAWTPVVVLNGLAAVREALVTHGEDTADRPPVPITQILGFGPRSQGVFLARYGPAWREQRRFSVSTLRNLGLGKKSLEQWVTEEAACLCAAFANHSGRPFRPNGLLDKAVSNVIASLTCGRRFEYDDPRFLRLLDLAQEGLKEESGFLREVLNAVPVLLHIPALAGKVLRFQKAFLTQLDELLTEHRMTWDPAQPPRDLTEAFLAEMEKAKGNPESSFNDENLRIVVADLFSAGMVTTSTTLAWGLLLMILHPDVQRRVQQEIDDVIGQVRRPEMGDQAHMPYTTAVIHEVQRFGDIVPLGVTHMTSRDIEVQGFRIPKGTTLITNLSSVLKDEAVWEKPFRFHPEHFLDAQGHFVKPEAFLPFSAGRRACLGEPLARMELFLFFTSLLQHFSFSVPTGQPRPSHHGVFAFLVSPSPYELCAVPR
# Sequence of Glucocorticoid Receptor GR (P04150 whole entry): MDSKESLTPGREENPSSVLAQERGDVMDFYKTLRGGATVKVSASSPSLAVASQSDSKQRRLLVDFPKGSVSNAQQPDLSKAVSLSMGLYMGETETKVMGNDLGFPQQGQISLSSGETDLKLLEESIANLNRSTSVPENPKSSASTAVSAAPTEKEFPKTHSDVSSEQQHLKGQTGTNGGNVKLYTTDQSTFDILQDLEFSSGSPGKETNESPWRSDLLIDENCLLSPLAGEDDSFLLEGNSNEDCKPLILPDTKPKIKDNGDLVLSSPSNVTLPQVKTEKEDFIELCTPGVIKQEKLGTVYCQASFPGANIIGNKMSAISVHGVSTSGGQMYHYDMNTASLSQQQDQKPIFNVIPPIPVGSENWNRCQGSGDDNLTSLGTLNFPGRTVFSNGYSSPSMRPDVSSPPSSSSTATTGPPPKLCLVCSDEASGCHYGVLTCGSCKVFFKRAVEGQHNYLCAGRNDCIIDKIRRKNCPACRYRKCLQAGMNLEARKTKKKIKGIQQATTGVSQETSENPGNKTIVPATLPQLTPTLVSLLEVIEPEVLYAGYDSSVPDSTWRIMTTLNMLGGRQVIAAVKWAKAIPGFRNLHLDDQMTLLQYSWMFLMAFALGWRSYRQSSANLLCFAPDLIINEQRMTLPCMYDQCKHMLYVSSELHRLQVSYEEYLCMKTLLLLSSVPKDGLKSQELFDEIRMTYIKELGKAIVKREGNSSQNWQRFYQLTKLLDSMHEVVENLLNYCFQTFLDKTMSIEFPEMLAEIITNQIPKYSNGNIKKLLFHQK
smiles,measurement,setting,value
"C[C@]12C=CC(=O)C=C1CC[C@@H]1[C@@H]2[C@@H](O)C[C@@]2(C)[C@H]1C[C@H]1O[C@@H](c3ccc(Cc4cc(N)c5c(c4)CCO5)cc3)O[C@]12C(=O)CO [Compound 009, (6aR,6bS,7S,8aS,8bS,10R,11aR,12aS,12bS)-10-(4-((7-amino-2,3-dihydrobenzofuran-5-yl)methyl)phenyl)-7-hydroxy-8b-(2-hydroxyacetyl)-6a,8a-dimethyl-6a,6b,7,8,8a,8b,11a,12,12a,12b-decahydro-1H-naphtho[2′,1′:4,5]indeno[1,2-d][1,3]dioxolan-4(2H)-one]",EC50,[1],0.0202 µM
same,IC50,CYP2C9,7.2 µM
same,half-life at 1 μM,[2],37.8 min
same,IC50,CYP2D6,> 50 µM
